# Paper PMC5224920, “Assessing the mechanism and therapeutic potential of modulators of the human Mediator complex-associated protein kinases” (eLife, 2016)
# Test system: 12 single or co-culture in vitro tissue models of primary cells
# Assay: Culture/co-culture cell model panel, extracellular biomarkers (DiscoveRx); as to CCL2/MCP-1: reference of the scale not given here; as to CD141/Thrombomodulin: reference of the scale not given here; as to CD142/Tissue Factor: reference of the scale not given here; as to CXCL8/IL-8: reference of the scale not given here; as to CXCL9/MIG: reference of the scale not given here; as to M-CSF: reference of the scale not given here; as to SRB: reference of the scale not given here
# Assay type: cell-based, human
# [1] = /HDFNo unstimulated fibroblasts, 1.00E0 nM
# [2] = /HDFNo unstimulated fibroblasts, 1.00E1 nM
# [3] = /HDFNo unstimulated fibroblasts, 1.00E2 nM
# [4] = /HDFNo unstimulated fibroblasts, 1.00E3 nM
# [5] = /HDFNo unstimulated fibroblasts, 1.00E4 nM
smiles,measurement,setting,value
CN1c2ccc(-c3cncc(Cl)c3N3CCC4(CC3)CNC(=O)O4)cc2CS1(=O)=O [CMPD2],CCL2/MCP-1,"3C, 1.00E0 nM",0.00665
same,CD54/ICAM-1,"3C, 1.00E0 nM",-0.015
same,CD87/uPAR,"3C, 1.00E0 nM",-0.232
same,CD106/VCAM-1,"3C, 1.00E0 nM",0.040
same,CD141/Thrombomodulin,"3C, 1.00E0 nM",0.035
same,CD142/Tissue Factor,"3C, 1.00E0 nM",0.086
same,CXCL8/IL-8,"3C, 1.00E0 nM",0.001
same,CXCL9/MIG,"3C, 1.00E0 nM",-0.002
same,HLA-DR,"3C, 1.00E0 nM",-0.059
same,Proliferation,"3C, 1.00E0 nM",-0.0027
same,SRB,"3C, 1.00E0 nM",-0.057
same,CCL2/MCP-1,"3C, 1.00E1 nM",-0.088
same,CD54/ICAM-1,"3C, 1.00E1 nM",-0.034
same,CD87/uPAR,"3C, 1.00E1 nM",-0.339
same,CD106/VCAM-1,"3C, 1.00E1 nM",0.048
same,CD141/Thrombomodulin,"3C, 1.00E1 nM",0.056
same,CD142/Tissue Factor,"3C, 1.00E1 nM",0.130
same,CXCL8/IL-8,"3C, 1.00E1 nM",-0.104
same,CXCL9/MIG,"3C, 1.00E1 nM",-0.011
same,HLA-DR,"3C, 1.00E1 nM",-0.129
same,Proliferation,"3C, 1.00E1 nM",-0.036
same,SRB,"3C, 1.00E1 nM",-0.071
same,CCL2/MCP-1,"3C, 1.00E2 nM",-0.157
same,CD54/ICAM-1,"3C, 1.00E2 nM",-0.046
same,CD87/uPAR,"3C, 1.00E2 nM",-0.368
same,CD106/VCAM-1,"3C, 1.00E2 nM",0.046
same,CD141/Thrombomodulin,"3C, 1.00E2 nM",0.051
same,CD142/Tissue Factor,"3C, 1.00E2 nM",0.120
same,CXCL8/IL-8,"3C, 1.00E2 nM",-0.212
same,CXCL9/MIG,"3C, 1.00E2 nM",-0.016
same,HLA-DR,"3C, 1.00E2 nM",-0.138
same,Proliferation,"3C, 1.00E2 nM",-0.098
same,SRB,"3C, 1.00E2 nM",-0.085
same,CCL2/MCP-1,"3C, 1.00E3 nM",-0.150
same,CD54/ICAM-1,"3C, 1.00E3 nM",-0.055
same,CD87/uPAR,"3C, 1.00E3 nM",-0.368
same,CD106/VCAM-1,"3C, 1.00E3 nM",0.045
same,CD141/Thrombomodulin,"3C, 1.00E3 nM",0.055
same,CD142/Tissue Factor,"3C, 1.00E3 nM",0.116
same,CXCL8/IL-8,"3C, 1.00E3 nM",-0.275
same,CXCL9/MIG,"3C, 1.00E3 nM",-0.019
same,HLA-DR,"3C, 1.00E3 nM",-0.153
same,Proliferation,"3C, 1.00E3 nM",-0.074
same,SRB,"3C, 1.00E3 nM",-0.078
same,CCL2/MCP-1,"3C, 1.00E4 nM",-0.161
same,CD54/ICAM-1,"3C, 1.00E4 nM",-0.041
same,CD87/uPAR,"3C, 1.00E4 nM",-0.370
same,CD106/VCAM-1,"3C, 1.00E4 nM",0.044
same,CD141/Thrombomodulin,"3C, 1.00E4 nM",0.020
same,CD142/Tissue Factor,"3C, 1.00E4 nM",0.089
same,CXCL8/IL-8,"3C, 1.00E4 nM",-0.273
same,CXCL9/MIG,"3C, 1.00E4 nM",-0.019
same,HLA-DR,"3C, 1.00E4 nM",-0.147
same,Proliferation,"3C, 1.00E4 nM",-0.089
same,SRB,"3C, 1.00E4 nM",-0.086
same,CCL2/MCP-1,"/HDF3CT, 1.00E0 nM",-0.00225
same,CD54/ICAM-1,"/HDF3CT, 1.00E0 nM",-0.030
same,CD106/VCAM-1,"/HDF3CT, 1.00E0 nM",0.019
same,CXCL8/IL-8,"/HDF3CT, 1.00E0 nM",-0.027
same,CXCL9/MIG,"/HDF3CT, 1.00E0 nM",0.019
same,CXCL10/IP-10,"/HDF3CT, 1.00E0 nM",0.006
same,Collagen I,"/HDF3CT, 1.00E0 nM",-0.00072
same,M-CSF,"/HDF3CT, 1.00E0 nM",0.017
same,MMP-1,"/HDF3CT, 1.00E0 nM",0.072
same,PAI-I,"/HDF3CT, 1.00E0 nM",0.018
same,SRB,"/HDF3CT, 1.00E0 nM",0.014
same,TIMP-2,"/HDF3CT, 1.00E0 nM",0.034
same,CCL2/MCP-1,"/HDF3CT, 1.00E1 nM",-0.044
same,CD54/ICAM-1,"/HDF3CT, 1.00E1 nM",-0.067
same,CD106/VCAM-1,"/HDF3CT, 1.00E1 nM",0.019
same,CXCL8/IL-8,"/HDF3CT, 1.00E1 nM",-0.054
same,CXCL9/MIG,"/HDF3CT, 1.00E1 nM",0.015
same,CXCL10/IP-10,"/HDF3CT, 1.00E1 nM",0.022
same,Collagen I,"/HDF3CT, 1.00E1 nM",-0.038
same,M-CSF,"/HDF3CT, 1.00E1 nM",-0.031
same,MMP-1,"/HDF3CT, 1.00E1 nM",0.112
same,PAI-I,"/HDF3CT, 1.00E1 nM",-0.053
same,SRB,"/HDF3CT, 1.00E1 nM",-0.00569
same,TIMP-2,"/HDF3CT, 1.00E1 nM",0.057
same,CCL2/MCP-1,"/HDF3CT, 1.00E2 nM",-0.108
same,CD54/ICAM-1,"/HDF3CT, 1.00E2 nM",-0.073
same,CD106/VCAM-1,"/HDF3CT, 1.00E2 nM",0.009
same,CXCL8/IL-8,"/HDF3CT, 1.00E2 nM",-0.154
same,CXCL9/MIG,"/HDF3CT, 1.00E2 nM",-0.031
same,CXCL10/IP-10,"/HDF3CT, 1.00E2 nM",0.011
same,Collagen I,"/HDF3CT, 1.00E2 nM",-0.041
same,M-CSF,"/HDF3CT, 1.00E2 nM",-0.045
same,MMP-1,"/HDF3CT, 1.00E2 nM",0.027
same,PAI-I,"/HDF3CT, 1.00E2 nM",-0.092
same,SRB,"/HDF3CT, 1.00E2 nM",-0.00555
same,TIMP-2,"/HDF3CT, 1.00E2 nM",0.013
same,CCL2/MCP-1,"/HDF3CT, 1.00E3 nM",-0.094
same,CD54/ICAM-1,"/HDF3CT, 1.00E3 nM",-0.080
same,CD106/VCAM-1,"/HDF3CT, 1.00E3 nM",-0.001
same,CXCL8/IL-8,"/HDF3CT, 1.00E3 nM",-0.182
same,CXCL9/MIG,"/HDF3CT, 1.00E3 nM",-0.043
same,CXCL10/IP-10,"/HDF3CT, 1.00E3 nM",0.00749
same,Collagen I,"/HDF3CT, 1.00E3 nM",-0.064
same,M-CSF,"/HDF3CT, 1.00E3 nM",-0.064
same,MMP-1,"/HDF3CT, 1.00E3 nM",0.014
same,PAI-I,"/HDF3CT, 1.00E3 nM",-0.119
same,SRB,"/HDF3CT, 1.00E3 nM",-0.020
same,TIMP-2,"/HDF3CT, 1.00E3 nM",0.052
same,CCL2/MCP-1,"/HDF3CT, 1.00E4 nM",-0.114
same,CD54/ICAM-1,"/HDF3CT, 1.00E4 nM",-0.089
same,CD106/VCAM-1,"/HDF3CT, 1.00E4 nM",0.006
same,CXCL8/IL-8,"/HDF3CT, 1.00E4 nM",-0.206
same,CXCL9/MIG,"/HDF3CT, 1.00E4 nM",-0.053
same,CXCL10/IP-10,"/HDF3CT, 1.00E4 nM",0.009
same,Collagen I,"/HDF3CT, 1.00E4 nM",-0.042
same,M-CSF,"/HDF3CT, 1.00E4 nM",-0.068
same,MMP-1,"/HDF3CT, 1.00E4 nM",0.035
same,PAI-I,"/HDF3CT, 1.00E4 nM",-0.129
same,SRB,"/HDF3CT, 1.00E4 nM",0.00189
same,TIMP-2,"/HDF3CT, 1.00E4 nM",0.072
same,CXCL8/IL-8,[1],0.063
same,CXCL9/MIG,[1],0.141
same,CXCL10/IP-10,[1],0.082
same,CXCL11/I-TAC,[1],0.071
same,EGFR,[1],0.035
same,M-CSF,[1],0.081
same,MMP-1,[1],0.152
same,PAI-I,[1],0.049
same,Proliferation_72hr,[1],0.007
same,SRB,[1],0.029
same,TIMP-1,[1],0.066
same,TIMP-2,[1],0.143
same,CXCL8/IL-8,[2],-0.030
same,CXCL9/MIG,[2],0.069
same,CXCL10/IP-10,[2],0.062
same,CXCL11/I-TAC,[2],0.000639
same,EGFR,[2],0.025
same,M-CSF,[2],0.039
same,MMP-1,[2],0.095
same,PAI-I,[2],0.00174
same,Proliferation_72hr,[2],0.026
same,SRB,[2],-0.013
same,TIMP-1,[2],0.023
same,TIMP-2,[2],0.114
same,CXCL8/IL-8,[3],0.056
same,CXCL9/MIG,[3],0.068
same,CXCL10/IP-10,[3],0.052
same,CXCL11/I-TAC,[3],-0.029
same,EGFR,[3],0.009
same,M-CSF,[3],0.012
same,MMP-1,[3],0.109
same,PAI-I,[3],0.059
same,Proliferation_72hr,[3],0.043
same,SRB,[3],-0.046
same,TIMP-1,[3],0.021
same,TIMP-2,[3],0.081
same,CXCL8/IL-8,[4],-0.00424
same,CXCL9/MIG,[4],0.019
same,CXCL10/IP-10,[4],0.029
same,CXCL11/I-TAC,[4],0.022
same,EGFR,[4],0.016
same,M-CSF,[4],0.038
same,MMP-1,[4],0.108
same,PAI-I,[4],0.005
same,Proliferation_72hr,[4],0.043
same,SRB,[4],-0.011
same,TIMP-1,[4],-0.038
same,TIMP-2,[4],0.090
same,CXCL8/IL-8,[5],0.043
same,CXCL9/MIG,[5],0.044
same,CXCL10/IP-10,[5],0.051
same,CXCL11/I-TAC,[5],-0.015
same,EGFR,[5],0.031
same,M-CSF,[5],-0.007
same,MMP-1,[5],0.080
same,PAI-I,[5],0.026
same,Proliferation_72hr,[5],0.023
same,SRB,[5],-0.018
same,TIMP-1,[5],-0.039
same,TIMP-2,[5],0.105
same,CCL2/MCP-1,"/HDFNo, 1.00E0 nM",0.045
same,CD54/ICAM-1,"/HDFNo, 1.00E0 nM",0.099
same,CD106/VCAM-1,"/HDFNo, 1.00E0 nM",0.066
same,Collagen I,"/HDFNo, 1.00E0 nM",0.074
same,Collagen III,"/HDFNo, 1.00E0 nM",0.041
same,CCL2/MCP-1,"/HDFNo, 1.00E1 nM",0.107
same,CD54/ICAM-1,"/HDFNo, 1.00E1 nM",0.090
same,CD106/VCAM-1,"/HDFNo, 1.00E1 nM",0.050
same,Collagen I,"/HDFNo, 1.00E1 nM",0.084
same,Collagen III,"/HDFNo, 1.00E1 nM",0.042
same,CCL2/MCP-1,"/HDFNo, 1.00E2 nM",0.018
same,CD54/ICAM-1,"/HDFNo, 1.00E2 nM",0.060
same,CD106/VCAM-1,"/HDFNo, 1.00E2 nM",0.020
same,Collagen I,"/HDFNo, 1.00E2 nM",0.100
same,Collagen III,"/HDFNo, 1.00E2 nM",0.061
same,CCL2/MCP-1,"/HDFNo, 1.00E3 nM",-0.027
same,CD54/ICAM-1,"/HDFNo, 1.00E3 nM",0.063
same,CD106/VCAM-1,"/HDFNo, 1.00E3 nM",0.049
same,Collagen I,"/HDFNo, 1.00E3 nM",0.108
